Measured values from paper PMC4179164, “Ophiobolin A from Bipolaris oryzae Perturbs Motility and Membrane Integrities of Porcine Sperm and Induces Cell Death on Mammalian Somatic Cell Lines” (Toxins, 2014).
Values after ≈ are worked out from the molar mass of the structure shown.

How the values were obtained:
[1] = test system: boar spermatozoa; assay: Cell membrane permeability assay on motile sperm cells (PI staining); type: cell-based; conditions: boar spermatozoa, motile at 37 °C, 2 h; read-out: Toxic endpoint EC50, Permeability to PI on motile cells
Experimental: To test the effect of OPA exposure on sperm cells in physiological conditions (swimming at 37 °C) the plasma membrane disruption on motile sperm cells was measured with the viability PI stain, where the loss of plasma membrane integrity was detected as appearance of red color stained nuclei in the damaged cells. In this assay, sperm cells were exposed to OPA at 37 °C and motility of the exposed sperm cells was induced and maintained for 2 h.
Cell membrane permeability assay on motile sperm cells was inspected by staining with PI (Molecular Probes, Eugene, OR, USA) in sperm cells induced to swim by shaking at 37 °C. One hundred and fifty μL aliquots of commercial extended boar semen with a density of 27 × 10^6 sperms mL^−1 were pipetted into microtiter plate wells and serially diluted methanolic solution of OPA were added in the concentration range of 200 ng mL^−1 to 4 μg mL^−1 including 6 levels and an additional methanol blank, and pre-incubated for 2 h on orbital shaker (Innova 5000 new Brunswick Scientific, Enfield, CT, USA) (160 rpm) at 37 °C. Four parallel measurements were done for each dilution. One ml PI solution (1 mg mL^−1 in Dulbeco’s phosphate buffered saline) was mixed with 3 mL of […] Dulbeco’s phosphate buffered saline. One hundred and fifty μL of this stain mixture was added to 150 μL of exposed boar semen. This suspension was incubated for 15 min at 37 °C in dark and measured using a microplate reader (Fluoroskan Ascent, Thermo Scientific, Vantaa, Finland) at excitation and emission wavelengths of 544 nm and 600 nm, respectively. For observing plasma membrane damage by PI staining frozen-thawed semen was used as a positive control (for mortality of 100%) representing the maximal fluorescence emitted by the cells permeable to PI and Dulbeco’s phosphate buffered saline was applied as background control (blank). Loss of viability in the sample was calculated as described in Alm et al.. The frozen sample represented 100% loss of viability. The assay was calibrated with triclosan (Sigma Chemical Co., St. Louis, MO, USA), in 5 parallel tests, the EC50 was 2 μg mL^−1 (SD ± 0.6). Cell membrane permeability assay on static sperm cells at room temperature was carried out by viability staining with PI and calcein-AM (Molecular Probes, Eugene, OR, USA) according to Hoornstra et al. in same concentration range and levels described above.

[2] = test system: boar spermatozoa; assay: Sperm motility inhibition assay (progressive and rapid motility); type: cell-based; conditions: 24 h, boar spermatozoa, 24 h exposure at room temperature, read-out: Toxic endpoint EC50, Motility inhibition (24 h)
Experimental: Furthermore, their physiological characters including their motility are influenced mainly by membrane potentials and ion fluxes. Thus, the change of sperm motility is able to sensitively indicate the substances causing mitochondrial membrane depolarization even at sublethal doses, which is undetectable with other cell lines. Motility of the spermatozoa was judged after exposure of 30 min and 24 h at room temperature with minor modification of a previously described method.
The sperm motility inhibition assay was done as reported by Andersson et al.. Commercial boar semen obtained from Figen Oy Finland extended in MR-A (Kubus, S.A., Madrid, Spain) containing 27 × 10^6 spermatozoa·mL^−1 was used. The purified OPA was diluted by serial dilutions in methanol obtaining two ranges of concentrations with 4-4 levels from 2500 μg mL^−1 to 250.0 μg mL^−1 and from 50 μg mL^−1 to 5.0 μg mL^−1, for short and long time exposures, respectively. Twenty μL of each dilution was administered to 2 mL of MR-A-diluted boar semen resulting approximately 100 times dilution of the original stock solutions; 20 μL of methanol was added to spermatozoa in the same way as a blank assay. The samples were incubated for 30 min and 24 h at room temperature for short and long term exposure assays, respectively. After exposure, motility was induced in the sperm cells by incubation in 37 °C for 5 min and shaking to provide the sperm cells with oxygen. […]
The above described subjective motility assay was calibrated with an automatic Hamilton Thorne sperm motility analyzer (HTM-S, ver. 7.2; Hamilton-Thorn Research, Danvers, MA, USA). […] Thus the protocol for assessing sperm tail beating as a measure of motility inhibition gave 99% similarity to measurements of the proportion of rapidly motile spermatozoa done with Hamilton Thorne sperm analyzer (HTM-S, ver. 7.2; Hamilton-Thorn Research, Danvers, MA, USA) Toxicity was expressed as the endpoint concentration of the OPA solution, where the progressive and rapid motility of the sperm cells were <50% of the vehicle exposed sperm cells. […]

[3] = Mammalian somatic cell toxicity assay calibration (cell line not stated); type: cell-based; conditions: 10 parallel tests, SD ± 3.4, cell line not stated
Experimental: Cytotoxicity against somatic cells was tested with feline fetus lung cells (FFL) cultivated as described by Andersson et al. and murine neuroblastoma cells (MNA) as described by Kulonen et al. as well as porcine kidney tubular epithelial cell line (PK-15), cultured as reported earlier. All somatic cell lines were maintained in an atmosphere of 95% air, 5% CO2 and 95% relative humidity at 37 °C on RPMI 1640 (complete medium) in a cell culture cabinet (Heracell 150i; Thermo Fisher Scientific, Vantaa, Finland). The detached cells were seeded onto 96 well microtiter plates and exposed to the purified OPA, the final concentration of which ranged from 48.8 ng mL^−1 to 25 μg mL^−1 containing 10 levels in methanol. After incubating the plates for one day at 37 °C, inhibition of cell proliferation was inspected in phase contrast microscope. EC100 for inhibition of proliferation was easy to observe as absence of cell monolayer and absence of intact cells in the well. EC0 was also easy to observe as an intact cell monolayer indistinguishable from the control. In microscope the determining of EC50 was more difficult. […] Then, the plates were analyzed by a microtiter plate reader (Fluoroskan Ascent, Thermo Scientific, Vantaa, Finland) at the excitation and emission wavelengths of 544 nm and 590 nm, respectively. […]

[4] = test system: boar spermatozoa; conditions: ref 4 (alamethicin, trilongin), 5 (acrebol), 6 (enniatin B); cited from earlier work
[5] = test system: porcine kidney (PK-15) cells; conditions: ref 4 (alamethicin, trilongin), 5 (acrebol), 6 (enniatin B); cited from earlier work
[6] = test system: boar spermatozoa; conditions: ref 4 (alamethicin, trilongin), 5 (acrebol), 6 (enniatin B), cited from earlier work
[7] = test system: boar spermatozoa; conditions: ref 4 (alamethicin), 6 (enniatin B); cited from earlier work
[8] = test system: boar spermatozoa; conditions: ref 4 (alamethicin, trilongin), 5 (acrebol), 6 (enniatin B); cited from earlier work; remark: listed apart in the source
[9] = test system: boar spermatozoa; conditions: ref 4 (alamethicin, trilongin), 5 (acrebol), 6 (enniatin B); cited from earlier work; remark: listed apart in the source

| Molecule | EC50 [1] [µg/mL] | EC50 [2] [µg/mL] | EC50 at 3 days [3] [µg/mL] | Toxic endpoint EC50, Dissipation of ΔΨm [4] [µg/mL] | Toxic endpoint EC50, Cytotoxicity, PK-15 cells [5] [µg/mL] | Toxic endpoint EC50, Motility inhibition (30 min) [6] [µg/mL] | Toxic endpoint EC50, Motility inhibition (24 h) [6] [µg/mL] | Toxic endpoint EC50, Permeability to PI on motile cells [7] [µg/mL] | Toxic endpoint EC50, Permeability to PI on static cells [8] [µg/mL] | Toxic endpoint EC50, Shivering tail beating induction [9] |
| --- | --- | --- | --- | --- | --- | --- | --- | --- | --- | --- |
| Oc1cc(Cl)ccc1Oc1ccc(Cl)cc1Cl [triclosan] | 2 (≈ 6.91 µM) | 1 (≈ 3.45 µM) | 9.4 (≈ 32.5 µM) |  |  |  |  |  |  |  |
| Alamethicin |  |  |  | 0.2 | 8 | 1 | 0.2 | ≤0.5 | 0.2 | None |
| CC(C)[C@H]1C(=O)O[C@H](C(C)C)C(=O)N(C)[C@@H](C(C)C)C(=O)O[C@H](C(C)C)C(=O)N(C)[C@@H](C(C)C)C(=O)O[C@H](C(C)C)C(=O)N1C [Enniatin B] |  |  |  | 5 | 60 | >10 | 5 | >20 | >50 | None |
| Acrebol |  |  |  | 0.8 | ≥10 | 2 | 0.1 |  | >4 | None |
